# Assay results taken from patent publication US20110184027A1, “TISSUE SELECTIVE STEAROYL-COA DESATURASE 1 INHIBITORS AND CELL BASED SCREENING ASSAY FOR THEIR IDENTIFICATION” (GLENMARK PHARMACEUTICALS S.A., priority 2008, published 2011).
# Legend:
# SCD-1 [1] = molecular target: T1, SCD-1 (Homo sapiens, UniProt O00767); experiment: Whole cell based SCD-1 assay in human skin cell line A431 (tritiated stearoyl CoA, labelled water release); parameters: includes cells which express the SCD-1 gene product endogenously; endogenous in cells; host or cells: A431 (ATCC CRL 1555), not induced; settings: for IC35: EC35; for Fold Skin:liver: ratio of EC35 skin cells (A431) to EC35 liver cells (HepG2)
# T1 sequence (O00767 1-359): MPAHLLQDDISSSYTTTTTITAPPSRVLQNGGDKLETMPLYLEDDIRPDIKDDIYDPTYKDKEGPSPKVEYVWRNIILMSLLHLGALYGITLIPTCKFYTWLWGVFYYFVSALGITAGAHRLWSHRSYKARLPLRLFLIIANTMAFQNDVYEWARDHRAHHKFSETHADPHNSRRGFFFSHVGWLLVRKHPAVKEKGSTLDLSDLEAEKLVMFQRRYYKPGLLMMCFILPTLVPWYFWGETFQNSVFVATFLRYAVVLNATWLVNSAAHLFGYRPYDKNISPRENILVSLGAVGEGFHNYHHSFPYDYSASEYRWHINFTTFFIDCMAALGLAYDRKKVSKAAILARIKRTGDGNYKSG
# Protocol: (§1) An assay was developed using whole cells to screen for agents that modulate SCD-1 activity. Three cell lines namely human liver cell line (hepatocellular carcinoma HepG2 ATCC HB 8065), human skin cell line (epidermal carcinoma A431 ATCC CRL 1555) and human corneal epithelial progenitor (HCEP) cells (CELLNTEC advanced cell systems) were used. HepG2 cells were seeded in a 24 well plate in complete MEM medium (Hyclone). A431 cells were seeded in a 12 well plate in complete DMEM medium (Sigma). HCEP cells were seeded in a 96 well plate in defined corneal epithelial medium CnT 20 (CELLNTEC advanced cell systems). HepG2 cells were induced with LXR agonist T0901317 (Cayman chemicals) in medium containing high glucose and fatty acid free BSA for 3 days with media change every day (Wang et al, (2004) Journal of Lipid Research, 45, 972-980). A431 cells were not induced. (3). The cells were preincubated in plain medium with the known SCD-1 modulators namely CLA (conjugated linoleic acid) (Sigma) and TSA (9 thiastearic acid) (Cayman chemicals) for 15-30 minutes at 37 deg C. and further challenged with 0.25 to 7.5 μCi tritiated Stearoyl CoA (American Radiolabelled chemicals). The cells were incubated for last 6 hours in 5% CO2 incubator at 37 deg C. or in specific embodiments for 4 hours to 30 hours. At the end of the incubation, the incubation medium was collected into tubes. Dowex AG 1-X8 resin (Biorad laboratories) pre-equilibrated with distilled ethanol:water was added to the tubes to separate the unconsumed substrate from the labelled water. The tubes were then vortexed for 5 minutes and centrifuged at 14000 rpm for 20 minutes at room temperature. The supernatant from the tubes was mixed with the scintillation fluid and radioactivity counted in the Packard topcount scintillation counter (Perkin Elmer). Counts obtained were normalised per million cells. Inhibition of enzyme activity was calculated as the percent of maximum reaction control that contained no test compound.
# (§2) The whole cell based assay was adapted to screen for agents that differentially modulate SCD-1 activity present in different tissues. Three cell lines namely human liver cell line (hepatocellular carcinoma HepG2), human skin cell line (epidermal carcinoma A431) and human corneal epithelial progenitor (HCEP) cells were used. HepG2 cells were seeded in a 24 well plate in complete MEM medium. A431 cells were seeded in a 12 well plate in complete DMEM medium. HCEP cells were seeded in a 96 well plate in defined corneal epithelial medium CnT 20. HepG2 cells were induced with LXR agonist T0901317 in medium containing 4.5 gm/litre glucose and 0.1% fatty acid free BSA for 3 days with media change every day (Wang et al, (2004) Journal of Lipid Research, 45, 972-980). A431 cells and HCEP cells were not induced. (3). The cells were preincubated in plain medium 0.1 nM to 10 μM concentrations potential SCD-1 modulator compounds for 15-30 minutes at 37 deg C. and further challenged with 0.25 to 7.5 μCi tritiated Stearoyl CoA. The cells were incubated for last 6 hours in 5% CO2 incubator at 37 deg C. or in specific embodiments for 4 hours to 30 hours. At the end of the incubation, the incubation medium was collected into tubes. Dowex AG 1-X8 resin pre-equilibrated with distilled ethanol:water was added to the tubes to separate the unconsumed substrate from the labelled water. The tubes were then vortexed for 5 minutes and centrifuged at 14000 rpm for 20 minutes at room temperature. The supernatant from the tubes was mixed with the scintillation fluid and radioactivity counted in the Packard topcount scintillation counter. Counts obtained were normalised per million cells. Inhibition of enzyme activity was calculated as the percent of maximum reaction control that contained no test compound. For active compounds, EC35 was calculated from dose response curve by non linear regression analysis using GraphPadPRISM software. The ratio of EC35 for skin cells to EC35 for liver cells was calculated. […]
# SCD-1 [2] = molecular target: T1, SCD-1; experiment: Whole cell based SCD-1 assay in human liver cell line HepG2 (tritiated stearoyl CoA, labelled water release); parameters: includes cells which express the SCD-1 gene product endogenously; endogenous in cells; host or cells: A431 (ATCC CRL 1555), not induced; settings: EC35
# Protocol: as §1, §2
# SCD-1 [3] = molecular target: T1, SCD-1; experiment: Whole cell based SCD-1 assay in human skin cell line A431 (tritiated stearoyl CoA, labelled water release); parameters: includes cells which express the SCD-1 gene product endogenously; endogenous in cells; host or cells: A431 (ATCC CRL 1555), not induced
# SCD-1 [4] = molecular target: T1, SCD-1; experiment: Whole cell based SCD-1 assay in human liver cell line HepG2 (tritiated stearoyl CoA, labelled water release); parameters: includes cells which express the SCD-1 gene product endogenously; endogenous in cells; host or cells: A431 (ATCC CRL 1555), not induced; settings: for Fold Liver:skin: ratio of EC35 liver cells (HepG2) to EC35 skin cells (A431)
# SCD-1 [5] = molecular target: T1, SCD-1; experiment: Whole cell based SCD-1 assay in human corneal epithelial progenitor (HCEP) cells; parameters: includes cells which express the SCD-1 gene product endogenously; endogenous in cells; settings: for IC35: HCEP human corneal epithelial cells, EC35, read-out: hCornea EC35; for Fold Liver:Cornea: ratio of EC35 liver cells (HepG2) to EC35 corneal cells (HCEP)
# Protocol: as §1
# The whole cell based assay was adapted to screen for agents that differentially modulate SCD-1 activity present in different tissues. Three cell lines namely human liver cell line (hepatocellular carcinoma HepG2), human skin cell line (epidermal carcinoma A431) and human corneal epithelial progenitor (HCEP) cells were used. HepG2 cells were seeded in a 24 well plate in complete MEM medium. A431 cells were seeded in a 12 well plate in complete DMEM medium. HCEP cells were seeded in a 96 well plate in defined corneal epithelial medium CnT 20. HepG2 cells were induced with LXR agonist T0901317 in medium containing 4.5 gm/litre glucose and 0.1% fatty acid free BSA for 3 days with media change every day (Wang et al, (2004) Journal of Lipid Research, 45, 972-980). A431 cells and HCEP cells were not induced. (3). […] The cells were incubated for last 6 hours in 5% CO2 incubator at 37 deg C. or in specific embodiments for 4 hours to 30 hours. At the end of the incubation, the incubation medium was collected into tubes. […] The supernatant from the tubes was mixed with the scintillation fluid and radioactivity counted in the Packard topcount scintillation counter. […] Inhibition of enzyme activity was calculated as the percent of maximum reaction control that contained no test compound. For active compounds, EC35 was calculated from dose response curve by non linear regression analysis using GraphPadPRISM software. The ratio of EC35 for skin cells to EC35 for liver cells was calculated.
# [6] = A-431, A431 human skin cells, read-out: hSkin EC35
# [7] = HepG2 human liver cells, read-out: hLiver EC35
# [8] = HepG2 liver cells, LXR agonist induced, read-out: Inhibition of SCD-1 activity in whole cell based assay (EC35), HepG2
Compound,IC35 (SCD-1 [1]; [6]),Fold Skin:liver (SCD-1 [1]),IC35 (SCD-1 [2]; [7]),also measured
Cc1nc(C#Cc2ccc(O)cc2)sc1C(=O)NCc1cccnc1 [compound 1],2140 nM,0.93,2300 nM,
"CCCCCCCCCSCCCCCCCC(=O)O [TSA, 9 thiastearic acid, reference compound]",,,,"IC35 (SCD-1 [1]; A-431, A431 skin cells, not induced, read-out: Inhibition of SCD-1 activity in whole cell based assay (EC35), A431): ~100000 nM; IC35 (SCD-1 [2]; [8]): ~100000 nM; inhibition at 100 µM (SCD-1 [3]; A-431, A431 skin cells, at 100 μM, read-out: Percentage inhibition of SCD-1, A431): 52%; inhibition at 100 µM (SCD-1 [4]; HepG2, HepG2 liver cells, at 100 μM, read-out: Percentage inhibition of SCD-1, HepG2): 58%"
Cc1nc(-n2cnn(Cc3ccc(F)cc3)c2=O)sc1C(=O)NCc1ccccc1 [compound 2],37.8 nM,0.95,39.5 nM,
Cc1nc(C#Cc2ccc(O)cc2)sc1C(=O)NCCc1ccccc1 [compound 2],982 nM,2.00,490 nM,
"conjugated linoleic acid [CLA, reference compound]",,,,"IC35 (SCD-1 [1]; A431 skin cells, not induced, read-out: Inhibition of SCD-1 activity in whole cell based assay (EC35), A431): 16350 nM; IC35 (SCD-1 [2]; [8]): 22660 nM; Percentage inhibition of SCD-1, A431 (SCD-1 [3]; A431 cells, at 300 μM): (~91% at 300 μM); Percentage inhibition of SCD-1, HCEP (SCD-1 [5]; HCEP corneal cells, at 300 μM): ~80% at 300 μM; Percentage inhibition of SCD-1, HepG2 (SCD-1 [4]; HepG2 cells, at 300 μM): (~80.01% at 300 μM)"
Cc1nc(C#Cc2ccc(O)cc2)sc1C(=O)NCc1ccccc1 [compound 1],,,363 nM,IC35 (SCD-1 [5]): 218 nM; Fold Liver:Cornea (SCD-1 [5]): 1.66
Cc1nc(C#Cc2cccc(O)c2)sc1C(=O)NCc1ccccc1 [compound 1],6900 nM,2.00,3440 nM,
Cc1nc(-c2ccc(-c3ccc(O)cc3)nc2)sc1C(=O)NCCCc1ccccc1 [compound 1],180 nM,,266 nM,Fold Liver:skin (SCD-1 [4]): 1.47

# Second part, led by results:
IC35 (SCD-1 [1]; [6]),Fold Skin:liver (SCD-1 [1]),IC35 (SCD-1 [2]; [7]),Compound,also measured
168 nM,,438 nM,Cc1nc(-c2ccc(-c3ccc(O)cc3)nc2)sc1C(=O)NCCc1ccccc1 [compound 2],Fold Liver:skin (SCD-1 [4]): 2.60
33.8 nM,1.15,29.4 nM,Cc1nc(-n2cnn(Cc3cccc(F)c3F)c2=O)sc1C(=O)NCc1ccccc1 [compound 3],
,,480 nM,Cc1nc(C#Cc2ccc(O)cc2)sc1C(=O)NCCc1ccc(F)cc1 [compound 2],IC35 (SCD-1 [5]): 53.2 nM; Fold Liver:Cornea (SCD-1 [5]): 9.02
> 10000 nM,>15,698 nM,Cc1nc(C#Cc2ccc(O)cc2)sc1C(=O)NCc1ccc(Cl)cc1 [compound 3],
